Source: PMC3275140 (Journal of Natural Products, 2011)

Tested on: tubulin
Experiment: Inhibition of tubulin polymerization
Type: biochemical
Conditions: read-out: Inhibition of tubulin polymerization IC50; pure protein assay

| Structure (SMILES) | IC50 |
| --- | --- |
| COc1cc(/C=C\c2ccc(OC)c(OP(=O)(O)O)c2OP(=O)(O)O)cc(OC)c1OC [CA1P (Z), reference compound] | > 40 µM |
| COc1ccc(/C=C\c2cc(OC)c(OC)c(OC)c2)c(OP(=O)(O)O)c1O [8a (Z), (Z)-1-[3′,4′,5′-Trimethoxyphenyl]-2-[2″-[(disodium)phosphate]-3″-[hydroxy]-4″-methoxyphenyl] ethene] | > 40 µM |
| COc1cc(/C=C\c2ccc(OC)c(OP(=O)(O)O)c2O)cc(OC)c1OC [4a (Z), (Z)-1-[3′,4′,5′-Trimethoxyphenyl]-2-[2″-[hydroxy]-3″-[(disodium)phosphate]-4″-methoxyphenyl] ethene] | > 40 µM |
